Assay results published in US9447039B2, “Indole carboxamide derivatives and uses thereof” (priority 2012, dated 2016).
Values after ≈ are worked out from the molar mass of the structure shown.

What follows are molecules tested on Mycobacterium tuberculosis H37Rv (ATCC #27294) (assay: Minimum Inhibitory Concentration (MIC50) determination). Conditions: 120 h.
Assay type: cell-based
Experimental: Mycobacterium tuberculosis H37Rv (ATCC #27294) (Mtb) strain was maintained in Middlebrook 7H9 broth medium supplemented with 0.05% Tween 80 and 10% ADS supplement. ADS supplement contains 5% bovine serum albumin fraction V. 2% D-dextrose and 0.8% of sodium chloride. Middlebrook 7H11 agar medium supplemented with 10% OADC (oleic acid, albumin, dextrose and catalase) was used as solid media for growing Mtb. Stock solutions of the compounds were prepared using 90% DMSO.
Minimum Inhibitory Concentration (MIC50) Determination
In Table 5 below, MIC50 is defined as the lowest concentration of the compound that inhibited 50% growth of the wild type strain compared to untreated controls. Test compounds were two or three fold serially diluted in duplicates and spotted by mosquito HTS to 384-well clear plates, resulting in 10 dilutions of each compound. A volume of 50 μl of Mtb culture (final OD600 of 0.02) was added to each well, and the assay plates were incubated at 37° C. for 5 days. Growth of bacteria was measured by reading absorbance at 600 nm using a Spectramax M2 spectrophotometer. MIC50 values were determined by using Activity Base software.
In the case of `CC1CCC(NC(=O)c2cc3cccc(Cl)c3[nH]2)CC1` (centres unmarked) [Example 4X, 7-Chloro-N-(4-methylcyclohexyl)-1H-indole-2-carboxamide], the MIC50 was 0.9 µM (≈ 0.262 µg/mL).
`C[C@H]1CC[C@@H](NC(=O)c2cc3c(Cl)cc(Cl)cc3[nH]2)CC1` [Example 4R, 4,6-Dichloro-N-(cis-4-methylcyclohexyl)-1H-indole-2-carboxamide] gave an MIC50 of 0.14 µM (≈ 0.0455 µg/mL).
Work on `Cc1cc(NC(C)C)cc2[nH]c(C(=O)N[C@@H]3CCCC[C@@H]3C)cc12` [Example 6E, 6-(Isopropylamino)-4-methyl-N-((1R,2S)-2-methylcyclohexyl)-1H-indole-2-carboxamide] yielded an MIC50 of 2.92 µM (≈ 0.958 µg/mL).
Molecule `Cc1cc(N2CCOCC2)cc2[nH]c(C(=O)N[C@@H]3CCCC[C@@H]3C)cc12` [Example 6B, 4-Methyl-N-((1R,2S)-2-methylcyclohexyl)-6-morpholino-1H-indole-2-carboxamide] has an MIC50 of 14.2 µM (≈ 5.07 µg/mL).
For `Cc1cc(C)c2cc(C(=O)N[C@@H]3CCC[C@@H](C)[C@@H]3C)[nH]c2c1` [Example 4C, N-((1R,2S,3R)-2,3-Dimethylcyclohexyl)-4,6-dimethyl-1H-indole-2-carboxamide], the MIC50 was 0.03 µM (≈ 0.00895 µg/mL).
In the case of `CCC(C)NC(=O)c1cc2c(C)cc(C)cc2[nH]1` (centres unmarked) [Example 3M, N-(sec-Butyl)-4,6-dimethyl-1H-indole-2-carboxamide], the MIC50 was 9.33 µM (≈ 2.28 µg/mL).
With `COc1ccc2[nH]c(C(=O)N[C@@H]3CCCC[C@@H]3C)cc2c1OC` [Example 4AN, 4,5-Dimethoxy-N-((1R,2S)-2-methylcyclohexyl)-1H-indole-2-carboxamide] the MIC50 was 1.02 µM (≈ 0.323 µg/mL).
For `CC1CCC(NC(=O)c2cc3c(Cl)cc(F)cc3[nH]2)CC1` (centres unmarked) [Example 4AT, 4-Chloro-6-fluoro-N-(4-methylcyclohexyl)-1H-indole-2-carboxamide], the MIC50 was 0.165 µM (≈ 0.0509 µg/mL).
Work on `Cc1cc(OCCN2CCOCC2)cc2[nH]c(C(=O)NC3CCCCC3)cc12` [Example 9A, N-Cyclohexyl-4-methyl-6-(2-morpholinoethoxy)-1H-indole-2-carboxamide] yielded an MIC50 of 4.94 µM (≈ 1.9 µg/mL).
With `Cc1cc(C)c2cc(C(=O)Nc3ccc(C(C)C)cc3)[nH]c2c1` [Example 3A, N-(4-Isopropylphenyl)-4,6-dimethyl-1H-indole-2-carboxamide] the MIC50 was 8.67 µM (≈ 2.66 µg/mL).
`Cc1cc(C)c2cc(C(=O)NC3CCCCC3C(F)(F)F)[nH]c2c1` (centres unmarked) [Example 4M, 4,6-Dimethyl-N-(2-(trifluoromethyl)cyclohexyl)-1H-indole-2-carboxamide] showed an MIC50 of 0.585 µM (≈ 0.198 µg/mL).
Molecule `C[C@H]1CCCC[C@H]1NC(=O)c1cc2ccc(Br)cc2[nH]1` [Example 4AC, 6-Bromo-N-((1R,2S)-2-methylcyclohexyl)-1H-indole-2-carboxamide] has an MIC50 of 0.5 µM (≈ 0.168 µg/mL).
Molecule `Cc1cc(C)c2cc(C(=O)NC3CCCCC3C#N)[nH]c2c1` (centres unmarked) [Example 4Q, N-(2-Cyanocyclohexyl)-4,6-dimethyl-1H-indole-2-carboxamide] has an MIC50 of 2.06 µM (≈ 0.608 µg/mL).
`Cc1cc(Br)c2cc(C(=O)N[C@@H]3CCCC[C@@H]3C)[nH]c2c1` [Example 4AI, 4-Bromo-6-methyl-N-((1R,2S)-2-methylcyclohexyl)-1H-indole-2-carboxamide] was tested, and the MIC50 was 0.06 µM (≈ 0.021 µg/mL).
In the case of `CC1CCC(NC(=O)c2cc3ccc(Cl)cc3[nH]2)CC1` (centres unmarked) [Example 4V, 6-Chloro-N-(4-methylcyclohexyl)-1H-indole-2-carboxamide], the MIC50 was 0.2 µM (≈ 0.0582 µg/mL).
For `Cc1cccc2[nH]c(C(=O)N[C@@H]3CCCC[C@@H]3C)cc12` [Example 4AA, 4-Methyl-N-((1R,2S)-2-methylcyclohexyl)-1H-indole-2-carboxamide], the MIC50 was 0.25 µM (≈ 0.0676 µg/mL).
`O=C(NC1CCC(C(F)(F)F)CC1)c1cc2c(F)cc(F)cc2[nH]1` (centres unmarked) [Example 5B, 4,6-Difluoro-N-(4-(trifluoromethyl)-cyclohexyl)-1H-indole-2-carboxamide] was tested, and the MIC50 was 1.19 µM (≈ 0.41 µg/mL).
`CC1CCC(NC(=O)c2cc3c(Cl)cc(Cl)cc3[nH]2)CC1` (centres unmarked) [Example 4G, 4,6-Dichloro-N-(4-methylcyclohexyl)-1H-indole-2-carboxamide] showed an MIC50 of 0.057 µM (≈ 0.0185 µg/mL).
Work on `Cc1ccc2cc(C(=O)N[C@@H]3CCCC[C@@H]3C)[nH]c2c1` [Example 4Z, 6-Methyl-N-((1R,2S)-2-methylcyclohexyl)-1H-indole-2-carboxamide] yielded an MIC50 of 0.36 µM (≈ 0.0973 µg/mL).
With `COC1CCCCC1NC(=O)c1cc2c(C)cc(C)cc2[nH]1` (centres unmarked) [Example 4N, N-(2-Methoxycyclohexyl)-4,6-dimethyl-1H-indole-2-carboxamide] the MIC50 was 5.78 µM (≈ 1.74 µg/mL).
With `CCC(C)CNC(=O)c1cc2c(C)cc(C)cc2[nH]1` (centres unmarked) [Example 3I, 4,6-Dimethyl-N-(2-methylbutyl)-1H-indole-2-carboxamide] the MIC50 was 2.48 µM (≈ 0.641 µg/mL).
Molecule `Cc1cc(C)c2cc(C(=O)NCC3CCCCC3)[nH]c2c1` [Example 3N, N-(Cyclohexylmethyl)-4,6-dimethyl-1H-indole-2-carboxamide] has an MIC50 of 0.87 µM (≈ 0.247 µg/mL).
In the case of `Cc1cc(C)c2cc(C(=O)N[C@H]3CC[C@H](C(C)C)CC3)[nH]c2c1` [Example 4D, N-(trans-4-Isopropylcyclohexyl)-4,6-dimethyl-1H-indole-2-carboxamide], the MIC50 was 0.03 µM (≈ 0.00937 µg/mL).
`CC1CCC(NC(=O)c2cc3c(F)cc(F)cc3[nH]2)CC1` (centres unmarked) [Example 4F, 4,6-Difluoro-N-(4-methylcyclohexyl)-1H-indole-2-carboxamide] showed an MIC50 of 0.37 µM (≈ 0.108 µg/mL).
In the case of `CC1CCC(NC(=O)c2cc3c(Cl)ccc(Cl)c3[nH]2)CC1` (centres unmarked) [Example 4U, 4,7-Dichloro-N-(4-methylcyclohexyl)-1H-indole-2-carboxamide], the MIC50 was 8.42 µM (≈ 2.74 µg/mL).
Work on `Cc1cc(Br)cc2[nH]c(C(=O)N[C@@H]3CCCC[C@@H]3C)cc12` [Example 4AH, 6-Bromo-4-methyl-N-((1R,2S)-2-methylcyclohexyl)-1H-indole-2-carboxamide] yielded an MIC50 of 0.01 µM (≈ 0.00349 µg/mL).
`CC1CCC(NC(=O)c2cc3c(F)cc(Cl)cc3[nH]2)CC1` (centres unmarked) [Example 4AS, 6-Chloro-4-fluoro-N-(4-methylcyclohexyl)-1H-indole-2-carboxamide] was tested, and the MIC50 was 0.23 µM (≈ 0.071 µg/mL).
`Cc1cc(C)c2cc(C(=O)NC3CCCCC3O)[nH]c2c1` (centres unmarked) [Example 4L, N-(2-Hydroxycyclohexyl)-4,6-dimethyl-1H-indole-2-carboxamide] gave an MIC50 of 2.92 µM (≈ 0.837 µg/mL).
`C[C@H]1CCCC[C@H]1NC(=O)c1cc2c(C(F)(F)F)cc(C(F)(F)F)cc2[nH]1` [Example 4BC, N-((1R,2S)-2-Methylcyclohexyl)-4,6-bis(trifluoromethyl)-1H-indole-2-carboxamide] was tested, and the MIC50 was 1.6 µM (≈ 0.628 µg/mL).
Molecule `CC1CCC(NC(=O)c2cc3ccc(F)cc3[nH]2)CC1` (centres unmarked) [Example 4BF, 6-Fluoro-N-(4-methylcyclohexyl)-1H-indole-2-carboxamide] has an MIC50 of 1.62 µM (≈ 0.444 µg/mL).
For `Cc1cc(C)c2cc(C(=O)NC(C)CCc3ccccc3)[nH]c2c1` (centres unmarked) [Example 3E, 4,6-Dimethyl-N-(4-phenylbutan-2-yl)-1H-indole-2-carboxamide], the MIC50 was 5.74 µM (≈ 1.84 µg/mL).
For `C[C@H]1CC[C@H](NC(=O)c2cc3c(C#N)cc(C#N)cc3[nH]2)CC1` [Example 4AV, 4,6-Dicyano-N-(trans-4-methylcyclohexyl)-1H-indole-2-carboxamide], the MIC50 was 0.225 µM (≈ 0.0689 µg/mL).
With `Cc1cc(C)c2cc(C(=O)NCC(C)C)[nH]c2c1` [Example 3J, N-Isobutyl-4,6-dimethyl-1H-indole-2-carboxamide] the MIC50 was 11.8 µM (≈ 2.9 µg/mL).
`COc1cc2cc(C(=O)N[C@@H]3CCCC[C@@H]3C)[nH]c2cc1OC` [Example 4AQ, 5,6-Dimethoxy-N-((1R,2S)-2-methylcyclohexyl)-1H-indole-2-carboxamide] gave an MIC50 of 19.5 µM (≈ 6.17 µg/mL).
`CCNc1cc(C)c2cc(C(=O)N[C@@H]3CCCC[C@@H]3C)[nH]c2c1` [Example 6D, 6-(Ethylamino)-4-methyl-N-((1R,2S)-2-methylcyclohexyl)-1H-indole-2-carboxamide] gave an MIC50 of 4.86 µM (≈ 1.52 µg/mL).
In the case of `N#Cc1ccc2cc(C(=O)NC3CCCCC3)[nH]c2c1` [Example 4AF, 6-Cyano-N-cyclohexyl-1H-indole-2-carboxamide], the MIC50 was 2.27 µM (≈ 0.608 µg/mL).
In the case of `C[C@H]1CCCC[C@H]1NC(=O)c1cc2cc3c(cc2[nH]1)OCO3` [Example 4AP, N-((1R,2S)-2-Methylcyclohexyl)-5H-[1,3]dioxolo[4,5-f]indole-6-carboxamide], the MIC50 was 2.13 µM (≈ 0.64 µg/mL).
For `Cc1cc(C)c2cc(C(=O)NC3CCCCC3C)[nH]c2c1` (centres unmarked) [Example 3H, 4,6-Dimethyl-N-(2-methylcyclohexyl)-1H-indole-2-carboxamide], the MIC50 was 0.32 µM (≈ 0.091 µg/mL).
